Laboratory results taken from US4258180A, “C6-Modified cyclodextrin sulfate salts as complement inhibitors” (American Cyanamid Company, priority 1979, dated 1981).
Counter-ions that a name gives are not always drawn.

How the values were obtained:
complement system = conditions: British Journal of Experimental Pathology, 33, 327-339 (1952); cited from earlier work
[1] = test system: hereditary angio-neurotic edema; conditions: literature reports; cited from earlier work
activated human C1 = activated human C1 (Homo sapiens, UniProt P09871); assay: Test Code 026 (C1 inhibitor); type: biochemical; conditions: serial dilution assay, twofold dilutions; higher well number indicates higher activity
Description: (§1) An active inhibitor protects C2 from C1 and C4; (ii) Test Code 035 (C3-C9 inhibitor)--This test determines the ability of the late components of human complement (C3-C9) to lyse EAC 142 in the presence of appropriate dilutions of the test compound. An active inhibitor protects EAC 142 from lysis by human C3-C9; (iii) Test Code 036 (C-Shunt inhibitor)--In this test human erythrocytes rendered fragile are lysed in autologous serum via the shunt pathway activated by cobra venom factor in the presence of appropriate dilutions of the test compound. Inhibition of the shunt pathway results in failure of lysis; (iv) Forssman Vasculitis Test--Here, the well known complement dependent lesion, Forssman Vasculitis, is produced in guinea pigs by intradermal injection of rabbit anti-Forssman antiserum. The lesion is measured in terms of diameter, edema and hemorrhage and the extent to which a combined index of these is inhibited by prior intraperitoneal injection of the test compound at 200 mg/kg is then reported, unless otherwise stated; (v) Forssman Shock Test--Lethal shock is produced in guinea pigs by an i.v. injection of anti-Forssman antiserum and the harmonic mean death time of treated guinea pigs is compared with that of simultaneous controls; (vi) Complement Level Reduction Test--In this test, the above dosed guinea pigs, or others, are bled for serum and the complement level is determined in undiluted serum by the capillary tube method of U.S. Pat. No. 3,876,376 and compared to undosed control guinea pigs; and (vii) Cap 50 Test--Here, appropriate amounts of the test compound are added to a pool of guinea pig serum in vitro, after which the undiluted serum capillary tube assay referred to above is run. The concentration of compound inhibiting 50% is reported.

[2] = test system: late components of human complement (C3-C9); assay: Test Code 035 (C3-C9 inhibitor), lysis of EAC 142; type: biochemical; conditions: serial dilution assay, twofold dilutions; higher well number indicates higher activity; N = Negative
Description: as §1

shunt pathway = assay: Test Code 036 (C-Shunt inhibitor), lysis of fragile human erythrocytes in autologous serum, cobra venom factor; type: biochemical; conditions: serial dilution assay, twofold dilutions; higher well number indicates higher activity; N = Negative
Description: as §1

Row | Molecule | anticomplementary effect (complement system) | treatment of hereditary angio-neurotic edema [1] | 026 Activity in wells (activated human C1) [wells] | 035 Activity in wells [2] | 036 Activity in wells (shunt pathway)
1 | Nc1ccc2cc(S(=O)(=O)O)cc(O)c2c1N=Nc1ccc(NC(=O)Nc2ccc(N=Nc3c(N)ccc4cc(S(=O)(=O)O)cc(O)c34)c(S(=O)(=O)O)c2)cc1S(=O)(=O)O [chlorazol fast pink, 3,3'-ureylenebis-[6-(2-amino-8-hydroxy-6-sulfo-1-naphthylazo)]benzenesulfonic acid, tetrasodium salt] | anticomplementary effect | – | – | – | –
2 | NCCCCCC(=O)O [epsilon-aminocaproic acid] | – | used with success | – | – | –
3 | NC[C@H]1CC[C@H](C(=O)O)CC1 [tranexamic acid] | – | used with success | – | – | –
4 | [N-]=[N+]=NC[C@H]1O[C@@H]2O[C@H]3[C@H](OS(=O)(=O)O)[C@@H](OS(=O)(=O)O)[C@@H](O[C@H]4[C@H](OS(=O)(=O)O)[C@@H](OS(=O)(=O)O)[C@@H](O[C@H]5[C@H](OS(=O)(=O)O)[C@@H](OS(=O)(=O)O)[C@@H](O[C@H]6[C@H](OS(=O)(=O)O)[C@@H](OS(=O)(=O)O)[C@@H](O[C@H]7[C@H](OS(=O)(=O)O)[C@@H](OS(=O)(=O)O)[C@@H](O[C@H]8[C@H](OS(=O)(=O)O)[C@@H](OS(=O)(=O)O)[C@@H](O[C@H]1[C@H](OS(=O)(=O)O)[C@H]2OS(=O)(=O)O)O[C@@H]8CN=[N+]=[N-])O[C@@H]7CN=[N+]=[N-])O[C@@H]6CN=[N+]=[N-])O[C@@H]5CN=[N+]=[N-])O[C@@H]4CN=[N+]=[N-])O[C@@H]3CN=[N+]=[N-] [β-Cyclo[6-azido-6-deoxy]dextrin poly(H-sulfate)poly-trimethy] [6,6',6",6'",6"",6'"",6"""-Heptaazido-6,6',6",6'",6"",6'"",6"""-heptadeoxy-β-cyclodextrin, tetradecakis(H-sulfate), tetradecasalt with trimethylamine] | – | – | 2 | N | N
5 | O=S(=O)(O)O[C@@H]1[C@@H](OS(=O)(=O)O)[C@H]2O[C@H]3[C@H](OS(=O)(=O)O)[C@@H](OS(=O)(=O)O)[C@@H](O[C@H]4[C@H](OS(=O)(=O)O)[C@@H](OS(=O)(=O)O)[C@@H](O[C@H]5[C@H](OS(=O)(=O)O)[C@@H](OS(=O)(=O)O)[C@@H](O[C@H]6[C@H](OS(=O)(=O)O)[C@@H](OS(=O)(=O)O)[C@@H](O[C@H]7[C@H](OS(=O)(=O)O)[C@@H](OS(=O)(=O)O)[C@@H](O[C@H]8[C@H](OS(=O)(=O)O)[C@@H](OS(=O)(=O)O)[C@@H](O[C@@H]1[C@@H](CBr)O2)O[C@@H]8CBr)O[C@@H]7CBr)O[C@@H]6CBr)O[C@@H]5CBr)O[C@@H]4CBr)O[C@@H]3CBr [β-Cyclo[6-bromo-6-deoxy]dextrin poly(H-sulfate)poly-sodium s] [6,6',6",6'",6"",6'"",6"""-Heptabromo-6,6',6",6'",6"",6'"",6"""-heptadeoxy-β-cyclodextrin, tetradecakis(H-sulfate), tetradecasodium salt] | – | – | 7 | 3 wells | 5 wells
6 | O=S(=O)(O)O[C@@H]1[C@@H](OS(=O)(=O)O)[C@H]2O[C@H]3[C@H](OS(=O)(=O)O)[C@@H](OS(=O)(=O)O)[C@@H](O[C@H]4[C@H](OS(=O)(=O)O)[C@@H](OS(=O)(=O)O)[C@@H](O[C@H]5[C@H](OS(=O)(=O)O)[C@@H](OS(=O)(=O)O)[C@@H](O[C@H]6[C@H](OS(=O)(=O)O)[C@@H](OS(=O)(=O)O)[C@@H](O[C@H]7[C@H](OS(=O)(=O)O)[C@@H](OS(=O)(=O)O)[C@@H](O[C@H]8[C@H](OS(=O)(=O)O)[C@@H](OS(=O)(=O)O)[C@@H](O[C@@H]1[C@@H](CBr)O2)O[C@@H]8CBr)O[C@@H]7CBr)O[C@@H]6CBr)O[C@@H]5CBr)O[C@@H]4CBr)O[C@@H]3CBr [β-Cyclo[6-bromo-6-dexoy]dextrin poly(H-sulfate)poly-trimethy] [6,6',6",6'",6"",6'""-Heptabromo-6,6',6",6'",6"",6'"",6"""-heptadeoxy-β-cyclodextrin tetradecakis(H-sulfate), tatradecasalt with trimethylamine] | – | – | 6 | 3 wells | 4 wells
7 | N#CSC[C@H]1O[C@@H]2O[C@H]3[C@H](OS(=O)(=O)O)[C@@H](OS(=O)(=O)O)[C@@H](O[C@H]4[C@H](OS(=O)(=O)O)[C@@H](OS(=O)(=O)O)[C@@H](O[C@H]5[C@H](OS(=O)(=O)O)[C@@H](OS(=O)(=O)O)[C@@H](O[C@H]6[C@H](OS(=O)(=O)O)[C@@H](OS(=O)(=O)O)[C@@H](O[C@H]7[C@H](OS(=O)(=O)O)[C@@H](OS(=O)(=O)O)[C@@H](O[C@H]8[C@H](OS(=O)(=O)O)[C@@H](OS(=O)(=O)O)[C@@H](O[C@H]1[C@H](OS(=O)(=O)O)[C@H]2OS(=O)(=O)O)O[C@@H]8CSC#N)O[C@@H]7CSC#N)O[C@@H]6CSC#N)O[C@@H]5CSC#N)O[C@@H]4CSC#N)O[C@@H]3CSC#N [β-Cyclo[6-deoxy-6-thiocyanato]dextrin poly(H-sulfate)poly-so] [6,6',6",6'",6"",6'"",6"""-Heptadeoxy-6,6',6",6'",6"",6'"",6"""-heptathiocyanato-β-cyclodextrin, tetradecakis(H-sulfate), tetradecasodium salt] | – | – | 7 | 2 wells | 4 wells
8 | N#CSC[C@H]1O[C@@H]2O[C@H]3[C@H](OS(=O)(=O)O)[C@@H](OS(=O)(=O)O)[C@@H](O[C@H]4[C@H](OS(=O)(=O)O)[C@@H](OS(=O)(=O)O)[C@@H](O[C@H]5[C@H](OS(=O)(=O)O)[C@@H](OS(=O)(=O)O)[C@@H](O[C@H]6[C@H](OS(=O)(=O)O)[C@@H](OS(=O)(=O)O)[C@@H](O[C@H]7[C@H](OS(=O)(=O)O)[C@@H](OS(=O)(=O)O)[C@@H](O[C@H]8[C@H](OS(=O)(=O)O)[C@@H](OS(=O)(=O)O)[C@@H](O[C@H]1[C@H](OS(=O)(=O)O)[C@H]2OS(=O)(=O)O)O[C@@H]8CSC#N)O[C@@H]7CSC#N)O[C@@H]6CSC#N)O[C@@H]5CSC#N)O[C@@H]4CSC#N)O[C@@H]3CSC#N [β-Cyclo[6-deoxy-6-thiocyanato]dextrin poly(H-sulfate)poly-tr] [6,6',6",6'",6"",6'"",6"""-Heptadeoxy-6,6',6",6'",6"",6'"",6""-heptathiocyanato-β-cyclodextrin, tetradecakis(H-sulfte), tetradecasalt with trimethylamine] | – | – | 4 | N | 1 wells
9 | C[C@H]1O[C@@H]2O[C@H]3[C@H](OS(=O)(=O)O)[C@@H](OS(=O)(=O)O)[C@@H](O[C@H]4[C@H](OS(=O)(=O)O)[C@@H](OS(=O)(=O)O)[C@@H](O[C@H]5[C@H](OS(=O)(=O)O)[C@@H](OS(=O)(=O)O)[C@@H](O[C@H]6[C@H](OS(=O)(=O)O)[C@@H](OS(=O)(=O)O)[C@@H](O[C@H]7[C@H](OS(=O)(=O)O)[C@@H](OS(=O)(=O)O)[C@@H](O[C@H]8[C@H](OS(=O)(=O)O)[C@@H](OS(=O)(=O)O)[C@@H](O[C@H]1[C@H](OS(=O)(=O)O)[C@H]2OS(=O)(=O)O)O[C@@H]8C)O[C@@H]7C)O[C@@H]6C)O[C@@H]5C)O[C@@H]4C)O[C@@H]3C [β-Cyclo[6-deoxy]dextrin poly(H-sulfate)poly-sodium salt] [6,6',6",6'",6"",6'"",6"""-Heptadeoxy-β-cyclodextrin, tetradecakis(H-sulfate), tetradecasodium salt] | – | – | 9 | 4 wells | 5 wells
10 | C[C@H]1O[C@@H]2O[C@H]3[C@H](OS(=O)(=O)O)[C@@H](OS(=O)(=O)O)[C@@H](O[C@H]4[C@H](OS(=O)(=O)O)[C@@H](OS(=O)(=O)O)[C@@H](O[C@H]5[C@H](OS(=O)(=O)O)[C@@H](OS(=O)(=O)O)[C@@H](O[C@H]6[C@H](OS(=O)(=O)O)[C@@H](OS(=O)(=O)O)[C@@H](O[C@H]7[C@H](OS(=O)(=O)O)[C@@H](OS(=O)(=O)O)[C@@H](O[C@H]8[C@H](OS(=O)(=O)O)[C@@H](OS(=O)(=O)O)[C@@H](O[C@H]1[C@H](OS(=O)(=O)O)[C@H]2OS(=O)(=O)O)O[C@@H]8C)O[C@@H]7C)O[C@@H]6C)O[C@@H]5C)O[C@@H]4C)O[C@@H]3C [β-Cyclo[6-deoxy]dextrin poly(H-sulfate)poly-trimethylamine s] [6,6',6",6'",6"",6'"",6"""-Heptadeoxy-β-cyclodextrin, tetradecakis(H-sulfate), tetradecasalt with trimethylamine] | – | – | 7 | 2 wells | 4 wells
11 | heparin | anticomplementary effect | – | – | – | –
